Results as given in patent publication US20120208750A1, “USE OF PROTEIN KINASE C DELTA (PKCD) INHIBITORS TO TREAT DIABETES, OBESITY, AND HEPATIC STEATOSIS” (JOSLIN DIABETES CENTER, INC., priority 2009, published 2012).

Tests used:
Type in all cases: in vivo, mouse
[1] = test system: PKCd; experiment: PKCd mRNA expression in streptozotocin diabetic mice and insulin- or phlorizin-rescued mice (qPCR); conditions: STZ diabetic mice; rescue with s.c. insulin pellets or phlorizin 0.4 g/kg s.c. twice daily 10 days, FIG. 2F-G
Description: (§1) Expression of PKCd mRNA and protein was assayed in livers mice of various genotypes and under various conditions of diet. For all mRNA studies samples were prepared using RNeasy extraction kit according to the manufacturer protocol (QIAGEN), mRNA was measured by quantitative real-time PCR (qPRC), and results were normalized to TBP. For western blot analysis, 40-50 ug of each extract was loaded per lane. Each lane represents an individual animal. On a normal chow diet at 24 weeks of age, B6 mice have ˜60% higher levels of PKCd mRNA in liver than 129 mice (1.11±0.11 vs. 0.71±0.04, p<0.02) (FIG. 1A). […] These differences in PKCd messenger expression lead to similar differences in expression at the protein level when assessed by Western blot analysis of liver extracts (FIG. 1B). This difference in PKCd expression between B6 and 129 mice was also observed at 6 weeks of age (FIG. 1C), when 129 mice actually weigh slightly more than the B6 (22.1±0.5 vs. 19.8±0.3 g, p<0.001) and have identical glucose and insulin levels.
Streptozotocin treatment was performed as follows. Mice at 6 weeks of age received either daily i.p. injections of sodium citrate (pH 4.3) for controls or STZ (Sigma) resuspended in sodium citrate, 100 μg per g of body weight for three consecutive days. When these mice achieved fed glucose levels of >400 mg/dl for three consecutive days, they were separated into two equal groups. One group was not treated, while the other were treated with s.c. insulin pellets (LinShin, Toronto, ON, Canada), to obtain fed glucose levels of <200 mg/dl for at least three consecutive days. For phlorizin treatment of diabetic mice, male 8-week-old C57B1/6 mice were treated with a single intraperitoneal injection (200 μg/g body weight) of STZ (Sigma). PHZ (Sigma) was dissolved in a solution containing 10% ethanol, 15% DMSO, and 75% saline and was injected subcutaneously at a dose of 0.4 g/kg twice daily for 10 days from 8 days after the STZ injection. Control mice were injected with the same volume of vehicle.

[2] = test system: PKCd; experiment: PKCd mRNA expression in liver of leptin and/or insulin treated ob/ob mice (qPCR); conditions: short-term infusion (osmotic pump 4 days; insulin pellets s.c.), FIG. 2C
Description: as §1
Although the difference in PKCd expression can be observed between B6 and 129 mice prior to the onset of obesity, obesity and insulin resistance also regulate PKCd. […]

[3] = test system: PKCd; experiment: Western blot of liver protein expression in tunicamycin-treated mice (ER stress): PKCd; conditions: 1 μg/g i.p., 2, 4, 6 and 8 hours post-injection, FIG. 2E
Description: as §1
To induce an inflammation in vivo, mice were injected intraperitoneally with 100 μg LPS (Escherichia coli 55:B5; Sigma) or sterile saline as control. Mice were sacrificed 18 hours post-injection. […]

[4] = test system: Bip; experiment: Western blot of liver protein expression in tunicamycin-treated mice (ER stress): Bip; conditions: 1 μg/g i.p., 2, 4, 6 and 8 hours post-injection, FIG. 2E

Molecule	differences in PKCd expression vs control [1]	reversal of increased expression of PKCd in liver [2]	PKCd protein expression in liver during onset of ER stress [3]	ER stress chaperone protein Bip expression in liver [4]
O=C(CCc1ccc(O)cc1)c1c(O)cc(O)cc1O[C@@H]1O[C@H](CO)[C@@H](O)[C@H](O)[C@H]1O [phlorizin]	no differences			
insulin	no differences	not reversed		
CN(N=O)C(=O)N[C@H]1C(O)O[C@H](CO)[C@@H](O)[C@@H]1O (mixture of isomers) [STZ, streptozotocin]	no differences			
tunicamycin			did not observe any alterations	clearly induced
leptin: recombinant mouse leptin delivered by osmotic pump (protein, UniProt P41160 22-167, looked up) Leptin: VPIQKVQDDTKTLIKTIVTRINDISHTQSVSAKQRVTGLDFIPGLHPILSLSKMDQTLAVYQQVLTSLPSQNVLQIANDLENLRDLLHLLAFSKSCSLPQTSGLQKPESLDGVLEASLYSTEVVALSRLQGSLQDILQQLDVSPEC		not reversed		
